What was measured:
[1] = test system: barnyardgrass; experiment: Test B flooded paddy test; format: in vivo, Echinochloa crus-galli; settings: Flood, 250 g ai/ha; 0 to 100 scale where 0 is no effect and 100 is complete control
Summary of the method: (§1)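 Scores from 0 (no effect) to 100 (complete control) are visual comparisons with controls, taken 13 to 15 days after compound was applied into floodwater 3 cm deep around 2-leaf plants.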

[2] = test system: pigweed; experiment: Test A preemergence; format: in vivo, Amaranthus retroflexus; settings: for Pigweed plant response rating (0 to 100 scale): 125 g ai/ha; for Pigweed plant response rating: 500 g ai/ha, 0 to 100 scale where 0 is no effect and 100 is complete control
Summary of the method: (§2)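 Greenhouse pot test, loam/sand soil. Formulation: non-phytotoxic solvent mix plus surfactant. Pre: directed spray onto soil after sowing. Post: plants at 1–2 leaf, 2–10 cm. Rated visually vs untreated controls at ~10 d, 0 (no effect) to 100 (complete control).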

[3] = test system: wheat; experiment: Test A preemergence; format: in vivo, Triticum aestivum; settings: for Wheat plant response rating (0 to 100 scale): 125 g ai/ha; for Wheat plant response rating: 500 g ai/ha, 0 to 100 scale where 0 is no effect and 100 is complete control
Summary of the method: as §2

[4] = test system: morningglory; experiment: Test A preemergence; format: in vivo, Ipomoea spp.; settings: for Morningglory plant response rating (0 to 100 scale): 125 g ai/ha; for Morningglory plant response rating: 500 g ai/ha, 0 to 100 scale where 0 is no effect and 100 is complete control
Summary of the method: as §2

[5] = test system: wheat; experiment: Test A postemergence; format: in vivo, Triticum aestivum; settings: 0 to 100 scale where 0 is no effect and 100 is complete control; for Wheat plant response rating: 125 g ai/ha; for Plant response rating, Wheat: 500 g ai/ha
Summary of the method: as §2

[6] = test system: large (Lg) crabgrass; experiment: Test A postemergence; format: in vivo, Digitaria sanguinalis; settings: 0 to 100 scale where 0 is no effect and 100 is complete control; for Crabgrass, Large plant response rating: 125 g ai/ha; for Plant response rating, Crabgrass, Large: 500 g ai/ha
Summary of the method: as §2

[7] = test system: barnyardgrass; experiment: Test A postemergence; format: in vivo, Echinochloa crus-galli; settings: 0 to 100 scale where 0 is no effect and 100 is complete control; for Barnyardgrass plant response rating: 125 g ai/ha; for Plant response rating, Barnyardgrass: 500 g ai/ha
Summary of the method: as §2

[8] = test system: large (Lg) crabgrass; experiment: Test A preemergence; format: in vivo, Digitaria sanguinalis; settings: for Plant response rating, Crabgrass, Large / Crabgrass, Large plant response rating (0 to 100 scale): 125 g ai/ha; for Plant response rating, Crabgrass, Large / Crabgrass, Large plant response rating: 0 to 100 scale where 0 is no effect and 100 is complete control; for Crabgrass, Large plant response rating: 500 g ai/ha
Summary of the method: as §2

[9] = test system: corn; experiment: Test A preemergence; format: in vivo, Zea mays; settings: for Plant response rating, Corn / Corn plant response rating (0 to 100 scale): 125 g ai/ha; for Plant response rating, Corn / Corn plant response rating: 0 to 100 scale where 0 is no effect and 100 is complete control; for Corn plant response rating: 500 g ai/ha
Summary of the method: as §2

[10] = test system: velvetleaf; experiment: Test A postemergence; format: in vivo, Abutilon theophrasti; settings: 0 to 100 scale where 0 is no effect and 100 is complete control; for Velvetleaf plant response rating: 125 g ai/ha; for Plant response rating, Velvetleaf: 500 g ai/ha
Summary of the method: as §2

[11] = test system: morningglory; experiment: Test A postemergence; format: in vivo, Ipomoea spp.; settings: 0 to 100 scale where 0 is no effect and 100 is complete control; for Morningglory plant response rating: 125 g ai/ha; for Plant response rating, Morningglory: 500 g ai/ha
Summary of the method: as §2

[12] = test system: sedge, umbrella; experiment: Test B flooded paddy test; format: in vivo, Cyperus difformis; settings: Flood, 250 g ai/ha; 0 to 100 scale where 0 is no effect and 100 is complete control
Summary of the method: as §1

[13] = test system: giant foxtail; experiment: Test A preemergence; format: in vivo, Setaria faberii; settings: for Plant response rating, Foxtail, Giant / Foxtail, Giant plant response rating (0 to 100 scale): 125 g ai/ha; for Plant response rating, Foxtail, Giant / Foxtail, Giant plant response rating: 0 to 100 scale where 0 is no effect and 100 is complete control; for Foxtail, Giant plant response rating: 500 g ai/ha
Summary of the method: as §2

[14] = test system: barnyardgrass; experiment: Test A preemergence; format: in vivo, Echinochloa crus-galli; settings: for Plant response rating, Barnyardgrass / Barnyardgrass plant response rating (0 to 100 scale, 0 is no effect, 100 is complete control): 125 g ai/ha; for Plant response rating, Barnyardgrass / Barnyardgrass plant response rating: 0 to 100 scale where 0 is no effect and 100 is complete control; for Barnyardgrass plant response rating: 500 g ai/ha
Summary of the method: as §2

[15] = test system: velvetleaf; experiment: Test A preemergence; format: in vivo, Abutilon theophrasti; settings: for Velvetleaf plant response rating (0 to 100 scale): 125 g ai/ha; for Velvetleaf plant response rating: 500 g ai/ha, 0 to 100 scale where 0 is no effect and 100 is complete control
Summary of the method: as §2

[16] = test system: rice; experiment: Test B flooded paddy test; format: in vivo, Oryza sativa; settings: Flood, 250 g ai/ha; 0 to 100 scale where 0 is no effect and 100 is complete control
Summary of the method: as §1

[17] = test system: giant foxtail; experiment: Test A postemergence; format: in vivo, Setaria faberii; settings: 0 to 100 scale where 0 is no effect and 100 is complete control; for Foxtail, Giant plant response rating: 125 g ai/ha; for Plant response rating, Foxtail, Giant: 500 g ai/ha
Summary of the method: as §2

[18] = test system: corn; experiment: Test A postemergence; format: in vivo, Zea mays; settings: 0 to 100 scale where 0 is no effect and 100 is complete control; for Corn plant response rating: 125 g ai/ha; for Plant response rating, Corn: 500 g ai/ha
Summary of the method: as §2

[19] = test system: Heteranthera limosa; experiment: Test B flooded paddy test; format: in vivo; settings: Flood, 250 g ai/ha; 0 to 100 scale where 0 is no effect and 100 is complete control
Summary of the method: as §1

[20] = test system: pigweed; experiment: Test A postemergence; format: in vivo, Amaranthus retroflexus; settings: 0 to 100 scale where 0 is no effect and 100 is complete control; for Pigweed plant response rating: 125 g ai/ha; for Plant response rating, Pigweed: 500 g ai/ha
Summary of the method: as §2

| Compound | Plant response rating, Barnyardgrass [1] | Pigweed plant response rating (0 to 100 scale) [2] | Pigweed plant response rating [2] | Wheat plant response rating (0 to 100 scale) [3] | Wheat plant response rating [3] | Morningglory plant response rating (0 to 100 scale) [4] | Morningglory plant response rating [4] | Wheat plant response rating [5] | Plant response rating, Wheat [5] | Crabgrass, Large plant response rating [6] | Plant response rating, Crabgrass, Large [6] | Barnyardgrass plant response rating [7] | Plant response rating, Barnyardgrass [7] | Crabgrass, Large plant response rating [8] | Corn plant response rating [9] | Velvetleaf plant response rating [10] | Plant response rating, Velvetleaf [10] | Morningglory plant response rating [11] | Plant response rating, Morningglory [11] | Plant response rating, Sedge, Umbrella [12] | also measured |
| --- | --- | --- | --- | --- | --- | --- | --- | --- | --- | --- | --- | --- | --- | --- | --- | --- | --- | --- | --- | --- | --- |
| N#Cc1cnc(Oc2cccc(C=O)c2-n2cc(Br)cn2)nc1 [Compound 174] | 0 | 0 | 0 | 0 | 0 | 0 | 0 | 0 | 0 | 0 | 0 | 0 | 0 | 0 | 0 | 0 | 0 | 0 | 0 | 0 | Plant response rating, Crabgrass, Large [8]: 0; Plant response rating, Corn [9]: 0; Plant response rating, Foxtail, Giant [13]: 0; Foxtail, Giant plant response rating [13]: 0; Plant response rating, Barnyardgrass [14]: 0; Barnyardgrass plant response rating [14]: 0; Velvetleaf plant response rating (0 to 100 scale) [15]: 0; Velvetleaf plant response rating [15]: 0; Plant response rating, Rice [16]: 0; Foxtail, Giant plant response rating [17]: 0; Plant response rating, Foxtail, Giant [17]: 0; Corn plant response rating [18]: 0; Plant response rating, Corn [18]: 0; Plant response rating, Ducksalad [19]: 0; Pigweed plant response rating [20]: 0; Plant response rating, Pigweed [20]: 0 |
| N#Cc1cnc(Oc2cccc(C(F)F)c2-n2cc(Br)cn2)nc1 [Compound 175] | 0 | 0 | 0 | 0 | 0 | 0 | 0 | 0 | 0 | 0 | 0 | 0 | 0 | 0 | 0 | 0 | 0 | 0 | 0 | 0 | Plant response rating, Crabgrass, Large [8]: 0; Plant response rating, Corn [9]: 0; Plant response rating, Foxtail, Giant [13]: 0; Foxtail, Giant plant response rating [13]: 0; Plant response rating, Barnyardgrass [14]: 0; Barnyardgrass plant response rating [14]: 0; Velvetleaf plant response rating (0 to 100 scale) [15]: 0; Velvetleaf plant response rating [15]: 0; Plant response rating, Rice [16]: 0; Foxtail, Giant plant response rating [17]: 0; Plant response rating, Foxtail, Giant [17]: 0; Corn plant response rating [18]: 0; Plant response rating, Corn [18]: 0; Plant response rating, Ducksalad [19]: 0; Pigweed plant response rating [20]: 0; Plant response rating, Pigweed [20]: 0 |
| O=Cc1cccc(Oc2ncc(Br)cn2)c1-n1cc(I)cn1 [Compound 183] | 0 | 20 | 90 | 0 | 0 | 0 | 0 | 0 | 0 | 0 | 0 | 0 | 0 | 0 | 0 | 20 | 30 | 0 | 0 | 0 | Crabgrass, Large plant response rating (0 to 100 scale) [8]: 0; Corn plant response rating (0 to 100 scale) [9]: 0; Foxtail, Giant plant response rating (0 to 100 scale) [13]: 0; Foxtail, Giant plant response rating [13]: 0; Barnyardgrass plant response rating (0 to 100 scale, 0 is no effect, 100 is complete control) [14]: 0; Barnyardgrass plant response rating [14]: 0; Velvetleaf plant response rating (0 to 100 scale) [15]: 0; Velvetleaf plant response rating [15]: 0; Plant response rating, Rice [16]: 0; Foxtail, Giant plant response rating [17]: 0; Plant response rating, Foxtail, Giant [17]: 0; Corn plant response rating [18]: 0; Plant response rating, Corn [18]: 0; Plant response rating, Ducksalad [19]: 0; Pigweed plant response rating [20]: 20; Plant response rating, Pigweed [20]: 50 |
| CC#Cc1cnn(-c2ccccc2Oc2ncc(Cl)cn2)c1 [Compound 189] | 0 | 100 | 100 | 0 | 10 | 0 | 30 | 20 | 50 | 30 | 80 | 10 | 90 | 100 | 0 | 90 | 100 | 50 | 100 | 70 | Crabgrass, Large plant response rating (0 to 100 scale) [8]: 90; Corn plant response rating (0 to 100 scale) [9]: 0; Foxtail, Giant plant response rating (0 to 100 scale) [13]: 70; Foxtail, Giant plant response rating [13]: 100; Barnyardgrass plant response rating (0 to 100 scale, 0 is no effect, 100 is complete control) [14]: 20; Barnyardgrass plant response rating [14]: 90; Velvetleaf plant response rating (0 to 100 scale) [15]: 60; Velvetleaf plant response rating [15]: 80; Plant response rating, Rice [16]: 0; Foxtail, Giant plant response rating [17]: 40; Plant response rating, Foxtail, Giant [17]: 80; Corn plant response rating [18]: 10; Plant response rating, Corn [18]: 40; Plant response rating, Ducksalad [19]: 70; Pigweed plant response rating [20]: 100; Plant response rating, Pigweed [20]: 100 |
| Clc1cnc(Oc2cccc(-c3ccccc3)c2-n2cc(Br)cn2)nc1 [Compound 195] | 0 | 0 | 40 | 0 | 0 | 0 | 10 | 0 | 0 | 40 | 60 | 0 | 20 | 70 | 0 | 50 | 100 | 30 | 70 | 30 | Corn plant response rating (0 to 100 scale) [9]: 0; Foxtail, Giant plant response rating (0 to 100 scale) [13]: 10; Foxtail, Giant plant response rating [13]: 80; Barnyardgrass plant response rating (0 to 100 scale, 0 is no effect, 100 is complete control) [14]: 0; Barnyardgrass plant response rating [14]: 0; Velvetleaf plant response rating (0 to 100 scale) [15]: 0; Velvetleaf plant response rating [15]: 20; Plant response rating, Rice [16]: 20; Foxtail, Giant plant response rating [17]: 10; Plant response rating, Foxtail, Giant [17]: 50; Corn plant response rating [18]: 0; Plant response rating, Corn [18]: 20; Plant response rating, Ducksalad [19]: 20; Pigweed plant response rating [20]: 60; Plant response rating, Pigweed [20]: 80 |

From US9695155B2, “Herbicidal substituted pyrimidinyloxy benzene compounds” (E. I. DU PONT DE NEMOURS AND COMPANY, priority 2013, dated 2017)
